Counter-ions that a name gives are not always drawn.

Sequence of purified human Factor XIa (P03951 whole entry, looked up): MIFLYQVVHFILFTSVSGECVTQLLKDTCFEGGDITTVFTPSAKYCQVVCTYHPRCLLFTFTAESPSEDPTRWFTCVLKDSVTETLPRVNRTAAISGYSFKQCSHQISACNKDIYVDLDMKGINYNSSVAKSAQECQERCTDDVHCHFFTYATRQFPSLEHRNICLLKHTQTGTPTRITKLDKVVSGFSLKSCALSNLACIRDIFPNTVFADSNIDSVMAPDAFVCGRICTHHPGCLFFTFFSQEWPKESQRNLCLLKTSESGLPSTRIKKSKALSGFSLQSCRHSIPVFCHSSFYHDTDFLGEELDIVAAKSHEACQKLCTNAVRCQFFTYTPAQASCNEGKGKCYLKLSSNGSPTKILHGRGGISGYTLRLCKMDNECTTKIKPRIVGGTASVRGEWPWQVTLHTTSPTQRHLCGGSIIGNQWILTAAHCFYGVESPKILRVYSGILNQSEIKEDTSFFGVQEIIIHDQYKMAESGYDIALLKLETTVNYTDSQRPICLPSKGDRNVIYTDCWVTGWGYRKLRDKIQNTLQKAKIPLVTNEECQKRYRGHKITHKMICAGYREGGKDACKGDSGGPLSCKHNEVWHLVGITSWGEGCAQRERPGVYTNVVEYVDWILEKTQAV
Sequence of purified human Factor XIa (P03951 whole entry partner, looked up): as the sequence (P03951 whole entry, looked up) above

One assay has as its target purified human Factor XIa (Homo sapiens (Human), UniProt P03951). The assay can be described thus: biochemical. Type of assay: biochemical. Conditions: TFA salt; read-out: Factor XIa Ki.
As a reminder, the Ki is a dissociation constant, usually derived from enzyme kinetics or from competition with a known ligand. As to `CC1CCCC(N2CCC(c3c(F)ccc(Cl)c3F)=CC2=O)c2cc(ccn2)-c2ccc(C#N)cc2NC1=O` (stereo in doubt) [Example 23, (14R)-14-[4-(3-Chloro-2,6-difluorophenyl)-6-oxo-1,2,3,6-tetrahydropyridin-1-yl]-10-methyl-9-oxo-8,16-diazatricyclo[13.3.1.0^2,7]nonadeca-1(18),2,4,6,15(19),16-hexaene-5-carbonitrile, TFA salt], the Ki was determined as 93.2 nM.

Staying with this assay, now noted: read-out: Factor XIa Ki.
As for `C[C@@H]1CCC[C@H](N2CCC(c3c(F)ccc(Cl)c3F)=CC2=O)c2cc(ccn2)-c2ccc(N)cc2NC1=O` [Example 12, (10R,14S)-5-Amino-14-[4-(3-chloro-2,6-difluorophenyl)-6-oxo-1,2,3,6-tetrahydropyridin-1-yl]-10-methyl-8,16-diazatricyclo[13.3.1.0^2,7]nonadeca-1(19),2,4,6,15,17-hexaen-9-one], the Ki turned out to be 1.5 nM. The same measure, in the same setting: in the case of `C[C@@H]1CCC[C@H](N2CCC(c3c(F)ccc(Cl)c3F)=CC2=O)c2cc(ccn2)-c2ccc(F)cc2NC1=O` [Example 14, (10R,14S)-14-[4-(3-Chloro-2,6-difluorophenyl)-6-oxo-1,2,3,6-tetrahydropyridin-1-yl]-5-fluoro-10-methyl-8,16-diazatricyclo[13.3.1.0^2,7]nonadeca-1(19),2,4,6,15,17-hexaen-9-one, TFA salt] it was 34.8 nM; in that of `C[C@@H]1CCC[C@H](N2CCC(c3c(F)ccc(Cl)c3F)=CC2=O)c2cc(ccn2)-c2ccc(O)cc2NC1=O` [Example 18, (10R,14S)-14-[4-(3-Chloro-2,6-difluorophenyl)-6-oxo-1,2,3,6-tetrahydropyridin-1-yl]-5-hydroxy-10-methyl-8,16-diazatricyclo[13.3.1.0^2,7]nonadeca-1(19),2,4,6,15,17-hexaen-9-one, TFA salt], 1.25 nM; in that of `CC(=O)c1ccc(Cl)c(F)c1C1=CC(=O)N([C@H]2CCCC(C)C(=O)Nc3cc(C(N)=O)ccc3-c3ccnc2c3)CC1` (stereo partly drawn) [Example 34, (14S)-14-[4-(6-Acetyl-3-chloro-2-fluorophenyl)-6-oxo-1,2,3,6-tetrahydropyridin-1-yl]-10-methyl-9-oxo-8,16-diazatricyclo[13.3.1.0^2,7]nonadeca-1(19),2,4,6,15,17-hexaene-5-carboxamide, TFA salt], 4.17 nM. For the compound `CC1CCC[C@H](N2CCC(c3cccc(Cl)c3F)=CC2=O)c2cc(ccn2)-c2ccc(C(N)=O)cc2NC1=O` (stereo partly drawn) [Example 35, (14S)-14-[4-(3-Chloro-2-fluorophenyl)-6-oxo-1,2,3,6-tetrahydropyridin-1-yl]-10-methyl-9-oxo-8,16-diazatricyclo[13.3.1.0^2,7]nonadeca-1(19),2,4,6,15,17-hexaene-5-carboxamide, TFA salt], the inhibitory constant (Ki) amounted to 104 nM. In the case of `CCOC(=O)Cc1nnc(Nc2ccc3c(c2)NC(=O)[C@H](C)CCC[C@H](N2CCC(c4c(F)ccc(Cl)c4F)=CC2=O)c2cc-3ccn2)o1` [Example 42, Ethyl 2-(5-{[(10R,14S)-14-[4-(3-chloro-2,6-difluorophenyl)-6-oxo-1,2,3,6-tetrahydropyridin-1-yl]-10-methyl-9-oxo-8,16-diazatricyclo[13.3.1.0^2,7]nonadeca-1(19),2,4,6,15,17-hexaen-5-yl]amino}-1,3,4-oxadiazol-2-yl)acetate, TFA salt], the inhibitory constant (Ki) amounted to 0.45 nM.

`COC(=O)Nc1ccc2c(c1)NC(=O)[C@H](C)CCC[C@H](N1CCC(c3cc(Cl)ccc3OC(F)F)=CC1=O)c1cc-2ccn1` [Example 44, Methyl N-[(10R,14S)-14-{4-[5-chloro-2-(difluoromethoxy)phenyl]-6-oxo-1,2,3,6-tetrahydropyridin-1-yl}-10-methyl-9-oxo-8,16-diazatricyclo[13.3.1.0^2,7]nonadeca-1(19),2,4,6,15,17-hexaen-5-yl]carbamate, TFA salt]: the inhibitory constant (Ki) worked out at 0.13 nM. The same measure, in the same setting: in the case of `CC(=O)c1ccc(Cl)c(F)c1C1=CC(=O)N([C@H]2CCC[C@@H](C)C(=O)Nc3ccccc3-c3ccnc2c3)CC1` [Example 48, (10R,14S)-14-[4-(6-Acetyl-3-chloro-2-fluorophenyl)-6-oxo-1,2,3,6-tetrahydropyridin-1-yl]-10-methyl-8,16-diazatricyclo[13.3.1.0^2,7]nonadeca-1(19),2,4,6,15,17-hexaen-9-one, TFA salt] it was 4.77 nM. Take `C[C@@H]1CCC[C@H](N2CCC(c3c(F)ccc(Cl)c3F)=CC2=O)c2cc(ccn2)-c2ccc(NC(=O)OCCOC(C)(C)C)cc2NC1=O` [Example 53, 2-(tert-Butoxy)ethyl N-[(10R,14S)-14-[4-(3-chloro-2,6-difluorophenyl)-6-oxo-1,2,3,6-tetrahydropyridin-1-yl]-10-methyl-9-oxo-8,16-diazatricyclo[13.3.1.0^2,7]nonadeca-1(19),2,4,6,15,17-hexaen-5-yl]carbamate, TFA salt]: the Ki was 0.08 nM. Still for that read-out and setting: in the case of `C[C@@H]1CCC[C@H](N2CCC(c3c(F)ccc(Cl)c3F)=CC2=O)c2cc(ccn2)-c2cc(I)c(N)cc2NC1=O` [Example 61, (10R,14S)-5-Amino-14-[4-(3-chloro-2,6-difluorophenyl)-6-oxo-1,2,3,6-tetrahydropyridin-1-yl]-4-iodo-10-methyl-8,16-diazatricyclo[13.3.1.0^2,7]nonadeca-1(19),2,4,6,15,17-hexaen-9-one, TFA salt] it was 24.6 nM; in that of `C[C@@H]1CCC[C@H](N2CCC(c3c(C(F)(F)F)ccc(Cl)c3F)=CC2=O)c2cc(ccn2)-c2ccccc2NC1=O` [Example 67, (10R,14S)-14-{4-[3-Chloro-2-fluoro-6-(trifluoromethyl)phenyl]-6-oxo-1,2,3,6-tetrahydropyridin-1-yl}-10-methyl-8,16-diazatricyclo[13.3.1.0^2,7]nonadeca-1(19),2(7),3,5,15,17-hexaen-9-one, TFA salt], 2.98 nM; in that of `C[C@@H]1CCC[C@H](N2CCC(c3c(-n4cnnn4)ccc(Cl)c3F)=CC2=O)c2cc(ccn2)-c2ccccc2NC1=O` [Example 68, (10R,14S)-14-{4-[3-Chloro-2-fluoro-6-(1H-1,2,3,4-tetrazol-1-yl)phenyl]-6-oxo-1,2,3,6-tetrahydropyridin-1-yl}-10-methyl-8,16-diazatricyclo[13.3.1.0^2,7]nonadeca-1(19),2(7),3,5,15,17-hexaen-9-one, TFA salt], 0.05 nM. Same read-out and setting: in the case of `CC(=O)Nc1ccc2c(c1)NC(=O)[C@H](C)CCC[C@H](N1CCC(c3c(F)ccc(Cl)c3F)=CC1=O)c1cc-2ccn1` [Example 75, N-[(10R,14S)-14-[4-(3-Chloro-2,6-difluorophenyl)-6-oxo-1,2,3,6-tetrahydropyridin-1-yl]-10-methyl-9-oxo-8,16-diazatricyclo[13.3.1.0^2,7]nonadeca-1(19),2(7),3,5,15,17-hexaen-5-yl]acetamide, TFA salt] it was 3.54 nM; in that of `C[C@@H]1CCC[C@H](N2CCC(c3c(F)ccc(Cl)c3F)=CC2=O)c2cc(ccn2)-c2ccc(NS(C)(=O)=O)cc2NC1=O` [Example 76, N-[(10R,14S)-14-[4-(3-Chloro-2,6-difluorophenyl)-6-oxo-1,2,3,6-tetrahydropyridin-1-yl]-10-methyl-9-oxo-8,16-diazatricyclo[13.3.1.0^2,7]nonadeca-1(19),2(7),3,5,15,17-hexaen-5-yl]methanesulfonamide, TFA salt], 7.89 nM.

Regarding `C[C@@H]1CCC[C@H](N2CCC(c3c(F)ccc(Cl)c3F)=CC2=O)c2cc(ccn2)-c2ccc(NC(=O)CC(=O)OC(C)(C)C)cc2NC1=O` [Example 87, tert-Butyl 2-{[(10R,14S)-14-[4-(3-chloro-2,6-difluorophenyl)-6-oxo-1,2,3,6-tetrahydropyridin-1-yl]-10-methyl-9-oxo-8,16-diazatricyclo[13.3.1.0^2,7]nonadeca-1(19),2,4,6,15,17-hexaen-5-yl]carbamoyl}acetate, TFA salt], the Ki amounted to 17.3 nM.

On to `C[C@@H]1CCC[C@H](n2ccc(-c3c(F)ccc(Cl)c3F)cc2=O)c2cc(ccn2)-c2ccc(N)cc2NC1=O` [Example 91, (10R,14S)-5-Amino-14-[4-(3-chloro-2,6-difluorophenyl)-2-oxo-1,2-dihydropyridin-1-yl]-10-methyl-8,16-diazatricyclo[13.3.1.0^2,7]nonadeca-1(19),2,4,6,15,17-hexaen-9-one, 2 TFA salt], for which the inhibition constant (Ki) came out at 0.56 nM.

For the compound `C[C@@H]1CCC[C@H](n2ccc(-c3c(F)ccc(Cl)c3F)cc2=O)c2cc(ccn2)-c2ccc(Nc3ncccn3)cc2NC1=O` [Example 92, (10R,14S)-14-[4-(3-Chloro-2,6-difluorophenyl)-2-oxo-1,2-dihydropyridin-1-yl]-10-methyl-5-[(pyrimidin-2-yl)amino]-8,16-diazatricyclo[13.3.1.0^2,7]nonadeca-1(19),2(7),3,5,15,17-hexaen-9-one, 2 TFA salt], the Ki worked out at 0.56 nM.

For the compound `COC(=O)Nc1ccc2c(c1)NC(=O)[C@H](C)CCC[C@H](N1CCC(c3cncn3C)=CC1=O)c1cc-2ccn1` [Example 97, Methyl N-[(10R,14S)-10-methyl-14-[4-(1-methyl-1H-imidazol-5-yl)-6-oxo-1,2,3,6-tetrahydropyridin-1-yl]-9-oxo-8,16-diazatricyclo[13.3.1.0^2,7]nonadeca-1(19),2,4,6,15,17-hexaen-5-yl]carbamate, 2 TFA salt], the Ki is above 408 nM. Same read-out and setting: in the case of `CC(C)[C@@H]1CCC[C@H](N2CCC(c3c(-n4cnnn4)ccc(Cl)c3F)=CC2=O)c2cc(ccn2)-c2ccccc2NC1=O` [Example 100, (10S,14S)-14-{4-[3-chloro-2-fluoro-6-(1H-1,2,3,4-tetrazol-1-yl)phenyl]-6-oxo-1,2,3,6-tetrahydropyridin-1-yl}-10-(propan-2-yl)-8,16-diazatricyclo[13.3.1.0^2,7]nonadeca-1(18),2,4,6,15(19),16-hexaen-9-one, TFA salt] it was 0.09 nM; in that of `COC(=O)Nc1ccc2c(c1)NC(=O)[C@H](C)CCC[C@H](N1CCC(c3cncn3Cc3ccccc3)=CC1=O)c1cc-2ccn1` [Example 101, Methyl N-[(10R,14S)-14-[4-(1-benzyl-1H-imidazol-5-yl)-6-oxo-1,2,3,6-tetrahydropyridin-1-yl]-10-methyl-9-oxo-8,16-diazatricyclo[13.3.1.0^2,7]nonadeca-1(19),2,4,6,15,17-hexaen-5-yl]carbamate, bis TFA salt], above 434 nM.

(Values after patent US9409908B2 (priority 2012, dated 2016).)
